# Measurements: publication PMC2990605 (British Journal of Cancer, 2010)
# Entries after “also recorded” stand apart in the source; their conditions may differ.
# Assays:
# [1] = tested on: advanced solid malignancies; test: Antitumour activity, Response Evaluation Criteria in Solid Tumors; type: in vivo, patients; details: tosedostat with paclitaxel
# Method: Response was evaluated according to Response Evaluation Criteria in Solid Tumors ([Therasse et al, 2000]) after every second cycle.
# relapsed/refractory AML = tested on: relapsed/refractory AML; set-up: method as in Ossenkoppele et al, 2009; Reid et al, 2009; details: tosedostat monotherapy, ref Ossenkoppele et al, 2009, Reid et al; cited from earlier work
# [2] = tested on: human promyelocytic leukaemia cell line HL-60; set-up: method as in Krige et al, 2008; details: ref Krige et al, 2008; cited from earlier work
# [3] = cited from earlier work
# [4] = Plasma pharmacokinetics of tosedostat, CHR-79888 and paclitaxel (LC-MS/MS, noncompartmental); details: for AUC(0-t) / Cmax / Tmax / half-life / Vd/F: human, oral, mean (±s.e.m.); for AUC(0-t): AUC0−t; for half-life: T½; for Vd/F: Vz/F
# Method: On day 21, samples were taken until 8 h post-dose; the day 22 predose sample was used as the 24 h sample of day 21. […] Peak plasma concentrations (Cmax), overall drug exposure (AUC), and terminal plasma half-life (t½) were calculated using noncompartmental methods using WinNonlin Professional software (version 4.1, Pharsight Corporation, St Louis, MO, USA). Pharmacokinetics analysis, with reference to possible interactions, was descriptive.
# [5] = plasma, 90 mg, cohort 1: CHR-2797 90 mg, paclitaxel 135 mg m^−2, day 21, tosedostat without paclitaxel, plasma
# [6] = plasma, 90 mg, cohort 2: CHR-2797 90 mg, paclitaxel 175 mg m^−2, day 21, tosedostat without paclitaxel, plasma
# [7] = plasma, 130 mg, cohort 3: CHR-2797 130 mg, paclitaxel 175 mg m^−2, day 21, tosedostat without paclitaxel, plasma
# [8] = plasma, 180 mg, cohort 4: CHR-2797 180 mg, paclitaxel 175 mg m^−2, day 21, tosedostat without paclitaxel, plasma
# [9] = plasma, cohort 1: CHR-2797 90 mg, paclitaxel 135 mg m^−2, day 22, tosedostat in combination with paclitaxel, plasma
# [10] = plasma, cohort 2: CHR-2797 90 mg, paclitaxel 175 mg m^−2, day 22, tosedostat in combination with paclitaxel, plasma
# [11] = plasma, cohort 3: CHR-2797 130 mg, paclitaxel 175 mg m^−2, day 22, tosedostat in combination with paclitaxel, plasma
# [12] = plasma, cohort 4: CHR-2797 180 mg, paclitaxel 175 mg m^−2, day 22, tosedostat in combination with paclitaxel, plasma
structure (smiles),measurement,setting,value
CC(C)C[C@@H](C(=O)N[C@H](C(=O)OC1CCCC1)c1ccccc1)[C@H](O)C(=O)NO [tosedostat],response duration of PR,[1]; patient with malignant melanoma,7.2 months
same,response duration of PR,[1]; patient with squamous cell non-small-cell lung cancer,7.1 months
same,response duration of PR,[1]; patient with squamous-cell carcinoma of the oesophagus,1.5 months
same,"stable disease lasting >3 months, patients",[1],12
same,Median (95% CI) duration of s.d.,[1]; 12 patients,5.6 (3–6.5) months
same,"partial response, patients",[1]; 21 assessable patients,3
same,"stable disease, % of patients",[1]; 21 assessable patients,57%
same,"stable disease, patients",[1]; 21 assessable patients,12
same,"partial response, % of patients","[1]; 21 assessable patients, confirmed after ⩾4 weeks",14%
same,response rate,relapsed/refractory AML,31.4%
same,"gene expression analysis, transcriptional response",[2],transcriptional response to the drug indicative of amino acid depletion
same,phosphorylation of mTOR substrates,[2],inhibited
same,protein synthesis,[2],reduced
same,effect on platelets,"[3]; single agent dose escalation studies, ref Ossenkoppele et al, 2009, Reid et al",platelet suppressive effect
same,most commonly reported AEs,"[3]; single agent oral daily dosing, ref Reid et al, 2009","fatigue, thrombocytopenia, peripheral oedema and diarrhoea"
same,"Dose-limiting toxicities, patients","[3]; single agent tosedostat 320 mg, ref Reid et al, 2009",two of four patients
same,MTD with single agent tosedostat,"[3]; solid tumour patients treated for at least 28 days, oral daily, ref Reid et al, 2009",240 mg
same,"effect of paclitaxel coadministration on Cmax, tmax and t½",[4]; day 21 versus day 22,tendency for a decreased Cmax and an increased tmax and t½
same,effect of paclitaxel coadministration on overall exposure (AUC0−t),[4]; day 21 versus day 22,unaffected by paclitaxel administration; also recorded: unaffected by paclitaxel coadministration
same,AUC(0-t),[4]; [5],1140 ng·h/mL
same,AUC(0-t),[4]; [6],1890 ng·h/mL
same,Cmax,[4]; [5],522 ng/mL
same,Cmax,[4]; [6],969 ng/mL
same,Tmax,[4]; [5],1.2 h
same,Tmax,[4]; [6],1.2 h
same,half-life,[4]; [5],1.2 h
same,half-life,[4]; [6],1.3 h
same,Vd/F,[4]; [5],179 L
same,Vd/F,[4]; [6],72 L
same,AUC(0-t),[4]; [7],1920 ng·h/mL
same,Cmax,[4]; [7],880 ng/mL
same,Tmax,[4]; [7],1.7 h
same,half-life,[4]; [7],1.1 h
same,Vd/F,[4]; [7],112 L
same,AUC(0-t),[4]; [8],2520 ng·h/mL
same,Cmax,[4]; [8],1400 ng/mL
same,Tmax,[4]; [8],1.7 h
same,half-life,[4]; [8],1.1 h
same,Vd/F,[4]; [8],123 L
same,AUC(0-t),[4]; [9],896 ng·h/mL
same,AUC(0-t),[4]; [10],1410 ng·h/mL
same,AUC(0-t),[4]; [11],1400 ng·h/mL
same,AUC(0-t),[4]; [12],1710 ng·h/mL
same,Cmax,[4]; [9],289 ng/mL
same,Cmax,[4]; [10],527 ng/mL
same,Cmax,[4]; [11],615 ng/mL
same,Cmax,[4]; [12],399 ng/mL
same,Tmax,[4]; [9],4 h
same,Tmax,[4]; [10],2 h
same,Tmax,[4]; [11],1.3 h
same,Tmax,[4]; [12],4 h
same,half-life,[4]; [9],2.4 h
same,half-life,[4]; [10],3.1 h
same,half-life,[4]; [11],4 h
same,half-life,[4]; [12],3.1 h
same,Vd/F,[4]; [9],258 L
same,Vd/F,[4]; [10],276 L
same,Vd/F,[4]; [11],587 L
same,Vd/F,[4]; [12],471 L
same,PK interaction between tosedostat and paclitaxel,[4]; in vivo,no PK interaction
same,overall exposure versus dose,"[4]; tosedostat 90–180 mg, plasma",increased in a dose proportional manner
